In article PMC3894853 (Journal of medicinal chemistry, 2013):
Where two headings read alike, the source gives them in different places.

What was measured:
[1] = target: hSERT WT (Homo sapiens, UniProt P31645)
[2] = target: SERT (Rattus norvegicus, UniProt P31652); assay: Radioligand binding assay for SERT, displacement of [3H]1; conditions: for Ki(NET)/Ki (SERT): selectivity ratio
[3] = target: NET (Rattus norvegicus, UniProt Q9WTR4); assay: Radioligand binding assay for NET, displacement of [3H]nisoxetine
[4] = 30 µM compound, extrapolated from 24°C with the temperature factor of S-1
[5] = 30 µM compound, 18°C, COS-7 membranes, hSERT WT

Sequence of hSERT WT (P31645 whole entry): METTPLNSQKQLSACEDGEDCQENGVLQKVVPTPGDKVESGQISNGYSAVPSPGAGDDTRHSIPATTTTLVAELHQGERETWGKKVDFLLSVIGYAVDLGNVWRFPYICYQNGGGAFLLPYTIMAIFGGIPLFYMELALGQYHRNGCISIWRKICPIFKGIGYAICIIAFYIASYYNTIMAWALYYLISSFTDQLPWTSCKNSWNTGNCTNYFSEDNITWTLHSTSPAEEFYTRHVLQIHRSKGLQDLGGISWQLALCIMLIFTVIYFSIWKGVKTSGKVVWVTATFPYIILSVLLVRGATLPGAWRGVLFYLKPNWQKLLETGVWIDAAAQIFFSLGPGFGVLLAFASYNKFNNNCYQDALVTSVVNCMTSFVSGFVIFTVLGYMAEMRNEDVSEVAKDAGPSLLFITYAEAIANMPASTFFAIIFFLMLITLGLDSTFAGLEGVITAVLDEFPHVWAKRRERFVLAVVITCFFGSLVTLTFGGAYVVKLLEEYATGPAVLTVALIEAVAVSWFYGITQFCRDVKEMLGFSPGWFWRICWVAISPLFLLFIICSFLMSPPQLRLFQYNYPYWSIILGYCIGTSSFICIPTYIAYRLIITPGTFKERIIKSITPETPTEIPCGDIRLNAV
Sequence of SERT (P31652 whole entry): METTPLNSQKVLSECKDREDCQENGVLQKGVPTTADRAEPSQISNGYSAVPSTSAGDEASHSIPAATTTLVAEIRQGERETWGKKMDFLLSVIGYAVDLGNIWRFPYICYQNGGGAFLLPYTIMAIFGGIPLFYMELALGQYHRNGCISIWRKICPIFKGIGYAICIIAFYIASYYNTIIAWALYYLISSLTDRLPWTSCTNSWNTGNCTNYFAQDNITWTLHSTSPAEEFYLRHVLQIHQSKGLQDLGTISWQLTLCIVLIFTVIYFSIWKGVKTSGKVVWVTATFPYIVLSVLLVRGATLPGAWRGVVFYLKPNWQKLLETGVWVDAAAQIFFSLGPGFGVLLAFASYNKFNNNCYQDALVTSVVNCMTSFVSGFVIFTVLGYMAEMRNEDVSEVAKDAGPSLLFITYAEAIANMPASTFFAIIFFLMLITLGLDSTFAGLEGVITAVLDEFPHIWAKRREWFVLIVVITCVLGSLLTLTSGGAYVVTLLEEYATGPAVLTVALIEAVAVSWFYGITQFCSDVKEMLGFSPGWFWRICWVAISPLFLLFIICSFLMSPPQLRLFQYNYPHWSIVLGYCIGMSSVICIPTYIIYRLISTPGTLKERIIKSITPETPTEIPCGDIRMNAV
Sequence of NET (Q9WTR4 1-597): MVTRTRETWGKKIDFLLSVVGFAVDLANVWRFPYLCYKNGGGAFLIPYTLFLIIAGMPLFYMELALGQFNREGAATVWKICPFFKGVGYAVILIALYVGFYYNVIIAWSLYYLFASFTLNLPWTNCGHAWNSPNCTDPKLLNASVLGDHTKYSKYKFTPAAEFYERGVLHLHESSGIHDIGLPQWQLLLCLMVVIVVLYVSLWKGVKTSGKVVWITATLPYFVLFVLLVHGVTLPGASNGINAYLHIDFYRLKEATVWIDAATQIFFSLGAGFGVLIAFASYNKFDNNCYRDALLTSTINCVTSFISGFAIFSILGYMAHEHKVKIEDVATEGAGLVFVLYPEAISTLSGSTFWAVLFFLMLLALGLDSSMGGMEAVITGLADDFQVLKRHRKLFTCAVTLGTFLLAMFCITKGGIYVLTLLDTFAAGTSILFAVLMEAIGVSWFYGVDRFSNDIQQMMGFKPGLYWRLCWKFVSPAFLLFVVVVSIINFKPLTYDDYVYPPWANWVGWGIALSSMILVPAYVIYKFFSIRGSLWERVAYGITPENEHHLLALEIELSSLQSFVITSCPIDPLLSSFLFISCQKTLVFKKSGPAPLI

[3H] S-1 dissoc. t½ (min) at 18°C [1]	[3H] S-1 dissoc. t½ (min) at 18°C [1, 5]	Structure (SMILES)	further results
–	–	CN(CCCC1(c2ccc(F)cc2)OCc2cc(C#N)ccc21)CCc1ccccc1 (stereo not drawn) [Compound 42, 1-(4-Fluorophenyl)-1-(3-(methyl(phenethyl)amino)propyl)-1,3-dihydroisobenzofuran-5-carbonitrile]	[3H] S-1 dissoc. t½ (min) at 24°C [1]: 45.4 ± 5.9 min; 24°C dissociation t½ calculated to a t½ at 18°C [1, 4]: 110 ± 14 min
60.1 ± 1.0 min	–	CN(CCCC1(c2ccc(F)cc2)OCc2cc(C#N)ccc21)Cc1ccc2ccccc2c1 (stereo not drawn) [Compound 49, 1-(4-Fluorophenyl)-1-(3-(methyl(naphthalen-2-ylmethyl)amino)propyl)-1,3-dihydroisobenzofuran-5-carbonitrile]	–
33.2 ± 5.8 min	–	CN(C)CCCC1(c2ccc(F)cc2)OCc2c(I)cccc21 (stereo not drawn) [Compound 22, 3-(1-(4-Fluorophenyl)-4-iodo-1,3-dihydroisobenzofuran-1-yl)-N,N-dimethylpropan-1-amine]	–
–	17.4 ± 0.8 min	CN(C)CCCC1(c2ccc(F)cc2)OCc2cc(CN)ccc21 (stereo not drawn) [Compound 5, 3-(5-(Aminomethyl)-1-(4-fluorophenyl)-1,3-dihydroisobenzofuran-1-yl)-N,N-dimethylpropan-1-amine]	–
11.4 ± 0.2 min	–	CN(C)CCCC1(c2ccc(F)cc2)OCc2cc(CNCc3ccc4c(c3)Cc3ccccc3-4)ccc21 (stereo not drawn) [Compound 14, 3-(5-((((9H-Fluoren-2-yl)methyl)amino)methyl)-1-(4-fluorophenyl)-1,3-dihydroisobenzofuran-1-yl)-N,N-dimethylpropan-1-amine]	–
22.1 ± 1.5 min	–	CN(C)CCCC1(c2ccc(F)cc2)OCc2cc(CNCc3ccc4ccccc4c3)ccc21 (stereo not drawn) [Compound 13, 3-(1-(4-Fluorophenyl)-5-(((naphthalen-2-ylmethyl)amino)methyl)-1,3-dihydroisobenzofuran-1-yl)-N,N-dimethylpropan-1-amine]	–
–	–	CN(CCCC1(c2ccc(F)cc2)OCc2cc(C#N)ccc21)Cc1ccc2c(c1)Cc1ccccc1-2 (stereo not drawn) [Compound 50, 1-(3-(((9H-Fluoren-2-yl)methyl)(methyl)amino)propyl)-1-(4-fluorophenyl)-1,3-dihydroisobenzofuran-5-carbonitrile]	Ki(NET)/Ki (SERT) ([2]; Table 3): >100
–	–	CN(C)CCCC1(c2ccc(F)cc2)OCc2cc(-c3ccc([N+](=O)[O-])cc3)ccc21 (stereo not drawn) [Compound 19, 3-(1-(4-Fluorophenyl)-5-(4-nitrophenyl)-1,3-dihydroisobenzofuran-1-yl)-N,N-dimethylpropan-1-amine]	[3H] S-1 dissoc. t½ (min) at 24°C [1]: 40.2 ± 7.0 min; 24°C dissociation t½ calculated to a t½ at 18°C [1, 4]: 97 ± 17 min
–	24.7 ± 5.4 min	CN(C)CCCC(O)(c1ccc(Br)cc1)c1ccc(C#N)cc1CO (stereo not drawn) [Compound 24, 4-(1-(4-Bromophenyl)-4-(dimethylamino)-1-hydroxybutyl)-3-(hydroxymethyl)benzonitrile]	–
–	–	CN(C)CCCC1(c2ccc(F)cc2)OCc2cc(/C=C/c3ccccc3)ccc21 (single isomer, unassigned; (+)) [(+)62]	24°C dissociation t½ calculated to a t½ at 18°C [1]: 132.3 ± 8.5 min; [3H] S-1 dissoc. t½ (min) at 24°C ([1]; 30 µM compound, 24°C, COS-7 membranes, hSERT WT): 54.9 ± 3.5 min
–	–	CN(C)CCCC1(c2ccc(F)cc2)OCc2cc(Br)ccc21 (stereo not drawn) [Compound 17]	Ki(NET)/Ki (SERT) ([2]; Table 1): >10,000; Ki [3]: 28400 nM
23.1 ± 2.9 min	–	CN(C)CCCC1(c2ccc(F)cc2)OCc2cc(/C=C/Cc3ccccc3)ccc21 (stereo not drawn) [Compound 21, (E)-3-(1-(4-Fluorophenyl)-5-(3-phenylprop-1-en-1-yl)-1,3-dihydroisobenzofuran-1-yl)-N,N-dimethylpropan-1-amine]	–
–	–	CNCCCC1(c2ccc(F)cc2)OCc2cc(C#N)ccc21 (stereo not drawn) [Compound 38, 1-(4-Fluorophenyl)-1-(3-(methylamino)propyl)-1,3-dihydroisobenzofuran-5-carbonitrile]	Ki [2]: 5.04 ± 0.176 nM; Ki(NET)/Ki (SERT) ([2]; Table 3): 174.6; Ki [3]: 880 ± 12.4 nM
–	43.1 ± 6.2 min	CN(C)CCCC1(c2ccc(F)cc2)OCc2cc(-c3cccc(N)c3)ccc21 (stereo not drawn) [Compound 61]	–
–	59.6 ± 1.0 min	CN(CCCC1(c2ccc(F)cc2)OCc2cc(C#N)ccc21)Cc1csc2ccccc12 (stereo not drawn) [Compound 45, 1-(3-((Benzo[b]thiophen-3-yl-methyl)(methyl)amino)propyl)-1-(4-fluorophenyl)-1,3-dihydroisobenzofuran-5-carbonitrile]	–
16.4 ± 0.3 min	–	CN(C)CCCC1(c2ccc(F)cc2)OCc2cc(CN3CCN(c4ccccc4)CC3)ccc21 (stereo not drawn) [Compound 8, 3-(1-(4-Fluorophenyl)-5-((4-phenylpiperazin-1-yl)methyl)-1,3-dihydroisobenzofuran-1-yl)-N,N-dimethylpropan-1-amine]	–
41.2 ± 2.8 min	–	CN(CCCC1(c2ccc(F)cc2)OCc2cc(C#N)ccc21)Cc1ccc(N(C)C)cc1 (stereo not drawn) [Compound 46, 1-(3-((4-(Dimethylamino)benzyl)(methyl)amino)propyl)-1-(4-fluorophenyl)-1,3-dihydroisobenzofuran-5-carbonitrile]	–
–	24.8 ± 1.1 min	CN(C)CCCC1(c2ccc(F)cc2)OCc2cc(CN3CCN(c4cccc(Cl)c4Cl)CC3)ccc21 (stereo not drawn) [Compound 10, 3-(5-((4-(2,3-Dichlorophenyl)piperazin-1-yl)methyl)-1-(4-fluorophenyl)-1,3-dihydroisobenzofuran-1-yl)-N,N-dimethylpropan-1-amine]	–
–	21.4 ± 0.3 min	CN(C)CCCC1(c2ccc(F)cc2)OCc2cc(CNCc3ccc4c(c3)COC4(CCCN(C)C)c3ccc(F)cc3)ccc21 (stereo not drawn) [Compound 15, 3-(5-((((1-(3-(Dimethylamino)propyl)-1-(4-fluorophenyl)-1,3-dihydroisobenzofuran-5-yl)methyl)amino)methyl)-1-(4-fluorophenyl)-1,3-dihydroisobenzofuran-1-yl)-N,N-dimethylpropan-1-amine]	–
–	16.3 ± 0.1 min	COc1ccccc1N1CCN(Cc2ccc3c(c2)COC3(CCCN(C)C)c2ccc(F)cc2)CC1 (stereo not drawn) [Compound 9, 3-(1-(4-Fluorophenyl)-5-((4-(2-methoxyphenyl)piperazin-1-yl)methyl)-1,3-dihydroisobenzofuran-1-yl)-N,N-dimethylpropan-1-amine]	–
–	29.0 ± 1.3 min	CN(CCCC1(c2ccc(F)cc2)OCc2cc(C#N)ccc21)Cc1ccnc2ccccc12 (stereo not drawn) [Compound 48, 1-(4-Fluorophenyl)-1-(3-(methyl(quinolin-4-ylmethyl)amino)propyl)-1,3-dihydroisobenzofuran-5-carbonitrile]	–
52.0 ± 7.6 min	–	CN(CCCC1(c2ccc(F)cc2)OCc2cc(C#N)ccc21)C1CC=C(c2c[nH]c3ccccc23)CC1 (stereo not drawn) [Compound 60, 1-(3-((4-(1H-Indol-3-yl)cyclohex-3-en-1-yl)(methyl)amino)propyl)-1-(4-fluorophenyl)-1,3-dihydroisobenzofuran-5-carbonitrile]	–

Structure (SMILES)	[3H] S-1 dissoc. t½ (min) at 18°C [1]	[3H] S-1 dissoc. t½ (min) at 18°C [1, 5]	further results
CN(C)CCCC1(c2ccc(F)cc2)OCc2cc(I)ccc21 (stereo not drawn) [Compound 63]	–	34.4 ± 6.6 min	–
CN(C)CCCC1(c2ccc(F)cc2)OCc2cc(/C=C/c3ccccc3)ccc21 (single isomer, unassigned; (-)) [(−)62]	–	37.3 ± 9.5 min	–
